Assay results reported in US6737383B1, “Herbicidal oxadiazolidines” (priority 1999, dated 2004).

What was measured:
[1] = tested on: velvetleaf; assay: Test B pre/postemergence velvetleaf; format: in vivo, Abutilon theophrasti
In short: (§1)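 Herbicidal effect was estimated by eye on a ten-point control scale after plants spent twelve to sixteen days in a greenhouse following soil or foliar treatment. Foliar sprays targeted plants at one to four leaves; all doses were formulated in a non-phytotoxic solvent with surfactant.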

[2] = tested on: blackgrass; assay: Test B pre/postemergence blackgrass; format: in vivo, Alopecurus myosuroides
In short: as §1

[3] = tested on: bedstraw; assay: Test B pre/postemergence bedstraw; format: in vivo, Galium aparine
In short: as §1

[4] = tested on: rape; assay: Test B pre/postemergence rape; format: in vivo, Brassica napus
In short: as §1

[5] = tested on: wheat; assay: Test B pre/postemergence wheat; format: in vivo, Triticum aestivum
In short: as §1

[6] = tested on: crabgrass; assay: Test B pre/postemergence crabgrass; format: in vivo, Digitaria sanguinalis
In short: as §1

[7] = tested on: pigweed; assay: Test B pre/postemergence pigweed; format: in vivo, Amaranthus retroflexus
In short: as §1

[8] = tested on: purple nutsedge; assay: Test B pre/postemergence purple nutsedge; format: in vivo, Cyperus rotundus
In short: as §1

[9] = tested on: surinam grass; assay: Test B pre/postemergence surinam grass; format: in vivo, Brachiaria decumbens
In short: as §1

[10] = tested on: sugar beet; assay: Test B pre/postemergence sugar beet; format: in vivo, Beta vulgaris
In short: as §1

[11] = tested on: rice; assay: Test B flood test rice; format: in vivo, Oryza sativa
In short: (§2)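 Flood test on plants grown to the 2-leaf stage; treated plants kept in greenhouse twelve to sixteen days, then visually rated against controls on a 0 (no effect) to 10 (complete control) scale.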

[12] = tested on: corn; assay: Test B pre/postemergence corn; format: in vivo, Zea mays
In short: as §1

[13] = tested on: wild oat; assay: Test B pre/postemergence wild oat; format: in vivo, Avena fatua
In short: as §1

[14] = tested on: duck salad; assay: Test B flood test duck salad; format: in vivo, Heteranthera limosa
In short: as §2

[15] = tested on: soybean; assay: Test B pre/postemergence soybean; format: in vivo, Glycine max
In short: as §1

[16] = tested on: smallflower flatsedge; assay: Test B flood test smallflower flatsedge; format: in vivo, Cyperus difformis
In short: as §2

[17] = Preemergence, Rate 62 g/ha, scale of 0 to 10 where 0 is no effect and 10 is complete control
[18] = Preemergence, Rate 250 g/ha, scale of 0 to 10 where 0 is no effect and 10 is complete control
[19] = Preemergence, Rate 500 g/ha, scale of 0 to 10 where 0 is no effect and 10 is complete control
[20] = Rate 62 g/ha, Postemergence, scale of 0 to 10 where 0 is no effect and 10 is complete control
[21] = Rate 125 g/ha, Postemergence, scale 0 to 10
[22] = Rate 125 g/ha, Preemergence, scale of 0 to 10 where 0 is no effect and 10 is complete control
[23] = Rate 500 g/ha, Postemergence, scale 0 to 10
[24] = Rate 62 g/ha, headed Pre-emergence (flood test species), scale 0 to 10 (0 no effect, 10 complete control)
[25] = Rate 125 g/ha, Pre-emergence, flood test species, scale 0 to 10 where 0 is no effect and 10 is complete control
[26] = Rate 250 g/ha, Pre-emergence, flood-test species, scale 0 to 10, 0 is no effect, 10 is complete control
[27] = Rate 500 g/ha, Pre-emergence, flood test species, scale 0 to 10 (0 no effect, 10 complete control)

## CC(C)N(C(=O)n1oc(=O)n(CCC(F)=C(F)F)c1=O)c1ccc(F)cc1 [Compound 218]
[1]; [17]
  Velvetleaf plant response rating: 0
[1]; [18]
  Velvetleaf plant response rating: 0
[1]; [19]
  Plant response rating, Velvetleaf: 2
[1]; [20]
  Velvetleaf plant response rating: 0
[1]; [21]
  Velvetleaf plant response rating: 0
[1]; [22]
  Velvetleaf plant response rating: 0
[1]; Rate 250 g/ha, Postemergence
  Plant response rating (0 to 10; 0 is no effect, 10 is complete control), Velvetleaf: 2
[2]; [17]
  Blackgrass plant response rating: 8
[2]; [18]
  Blackgrass plant response rating: 9
[2]; [19]
  Plant response rating, Blackgrass: 10
[2]; [20]
  Blackgrass plant response rating: 5
[2]; [21]
  Blackgrass plant response rating: 5
[2]; [22]
  Blackgrass plant response rating: 9
[2]; Rate 250 g/ha, Postemergence
  Plant response rating (0 to 10; 0 is no effect, 10 is complete control), Blackgrass: 7
[2]; [23]
  Blackgrass plant response rating: 8
[3]; [17]
  Bedstraw plant response rating: 0
[3]; [18]
  Bedstraw plant response rating: 0
[3]; [19]
  Plant response rating, Bedstraw: 3
[3]; [20]
  Bedstraw plant response rating: 6
[3]; [21]
  Bedstraw plant response rating: 8
[3]; [22]
  Bedstraw plant response rating: 0
[3]; [23]
  Bedstraw plant response rating: 8
[4]; [17]
  Rape plant response rating: 0
[4]; [18]
  Rape plant response rating: 0
[4]; [19]
  Plant response rating, Rape: 2
[4]; [20]
  Rape plant response rating: 0
[4]; [21]
  Rape plant response rating: 1
[4]; [22]
  Rape plant response rating: 0
[4]; Rate 250 g/ha, Postemergence
  Plant response rating (0 to 10; 0 is no effect, 10 is complete control), Rape: 6
[4]; [23]
  Rape plant response rating: 7
[5]; [17]
  Wheat plant response rating: 0
[5]; [18]
  Wheat plant response rating: 0
[5]; [19]
  Plant response rating, Wheat: 3
[5]; [20]
  Wheat plant response rating: 0
[5]; [21]
  Wheat plant response rating: 0
[5]; [22]
  Wheat plant response rating: 0
[5]; Rate 250 g/ha, Postemergence
  Plant response rating (0 to 10; 0 is no effect, 10 is complete control), Wheat: 0
[6]; [17]
  Crabgrass plant response rating: 4
[6]; [18]
  Crabgrass plant response rating: 6
[6]; [19]
  Plant response rating, Crabgrass: 7
[6]; [20]
  Crabgrass plant response rating: 1
[6]; [21]
  Crabgrass plant response rating: 4
[6]; [22]
  Crabgrass plant response rating: 4
[6]; Rate 250 g/ha, Postemergence
  Plant response rating (0 to 10; 0 is no effect, 10 is complete control), Crabgrass: 5
[6]; [23]
  Crabgrass plant response rating: 9
[7]; [17]
  Redroot pigweed plant response rating: 6
[7]; [18]
  Redroot pigweed plant response rating: 8
[7]; [19]
  Plant response rating, Redroot pigweed: 10
[7]; [20]
  Redroot pigweed plant response rating: 0
[7]; [21]
  Redroot pigweed plant response rating: 1
[7]; [22]
  Redroot pigweed plant response rating: 1
[7]; Rate 250 g/ha, Postemergence
  Plant response rating (0 to 10; 0 is no effect, 10 is complete control), Redroot pigweed: 3
[7]; [23]
  Redroot pigweed plant response rating: 7
[8]; [19]
  Plant response rating, Nutsedge: 0
[8]; [20]
  Nutsedge plant response rating: 0
[8]; [21]
  Nutsedge plant response rating: 0
[8]; Rate 250 g/ha, Postemergence
  Plant response rating (0 to 10; 0 is no effect, 10 is complete control), Nutsedge: 0
[8]; [23]
  Nutsedge plant response rating: 0
[9]; [17]
  B. signalgrass plant response rating: 0
[9]; Preemergence, Rate 250 g/ha, scale 0 to 10, 0 is no effect, 10 is complete control
  B. signalgrass plant response rating: 6
[9]; [19]
  Plant response rating, B. signalgrass: 7
[9]; [20]
  B. signalgrass plant response rating: 0
[9]; Rate 125 g/ha, Postemergence, scale 0 (no effect) to 10 (complete control)
  B. signalgrass plant response rating: 0
[9]; [22]
  B. signalgrass plant response rating: 4
[9]; Rate 250 g/ha, Postemergence
  Plant response rating (0 to 10; 0 is no effect, 10 is complete control), B. signalgrass: 3
[9]; Rate 500 g/ha, Postemergence, scale 0 to 10, 0 no effect, 10 complete control
  B. signalgrass plant response rating: 7
[10]; [17]
  Sugarbeets plant response rating: 0
[10]; [18]
  Sugarbeets plant response rating: 6
[10]; [19]
  Plant response rating, Sugarbeets: 7
[10]; [20]
  Sugarbeets plant response rating: 2
[10]; [21]
  Sugarbeets plant response rating: 2
[10]; [22]
  Sugarbeets plant response rating: 1
[10]; Rate 250 g/ha, Postemergence
  Plant response rating (0 to 10; 0 is no effect, 10 is complete control), Sugarbeets: 2
[10]; [23]
  Sugarbeets plant response rating: 4
[11]; [24]
  Rice plant response rating: 0
[11]; [25]
  Rice plant response rating: 0
[11]; [26]
  Rice plant response rating: 0
[11]; [27]
  Rice plant response rating: 0
[12]; [17]
  Corn plant response rating: 0
[12]; [18]
  Corn plant response rating: 0
[12]; [19]
  Plant response rating, Corn: 6
[12]; [20]
  Corn plant response rating: 0
[12]; [21]
  Corn plant response rating: 0
[12]; [22]
  Corn plant response rating: 0
[12]; Rate 250 g/ha, Postemergence
  Plant response rating (0 to 10; 0 is no effect, 10 is complete control), Corn: 0
[12]; [23]
  Corn plant response rating: 0
[13]; [17]
  Wild oats plant response rating: 5
[13]; [18]
  Wild oats plant response rating: 7
[13]; [19]
  Plant response rating, Wild oats: 9
[13]; [20]
  Wild oats plant response rating: 0
[13]; [21]
  Wild oats plant response rating: 0
[13]; [22]
  Wild oats plant response rating: 6
[13]; Rate 250 g/ha, Postemergence
  Plant response rating (0 to 10; 0 is no effect, 10 is complete control), Wild oats: 1
[14]; [24]
  Ducksalad plant response rating: 0
[14]; [25]
  Ducksalad plant response rating: 0
[14]; [26]
  Ducksalad plant response rating: 0
[14]; [27]
  Ducksalad plant response rating: 0
[15]; [17]
  Soybean plant response rating: 0
[15]; [18]
  Soybean plant response rating: 2
[15]; [19]
  Plant response rating, Soybean: 6
[15]; [20]
  Soybean plant response rating: 3
[15]; [21]
  Soybean plant response rating: 4
[15]; [22]
  Soybean plant response rating: 2
[15]; Rate 250 g/ha, Postemergence
  Plant response rating (0 to 10; 0 is no effect, 10 is complete control), Soybean: 6
[15]; [23]
  Soybean plant response rating: 7
[16]; [24]
  S. Flatsedge plant response rating: 0
[16]; [25]
  S. Flatsedge plant response rating: 0
[16]; [26]
  S. Flatsedge plant response rating: 0
[16]; [27]
  S. Flatsedge plant response rating: 0
